According to patent publication US6395719B1, “Methods for increasing levels of acetylcholine” (Eli Lilly and Company, priority 1998, dated 2002):

Columns and labels:
[1] = system: choline acetyltransferase (ChAT); experiment: ChAT activity in hippocampus and frontal cortex homogenates of ovariectomized rats, radio-labelled assay of acetylcholine bio-synthesis; assay type: in vivo, female Sprague-Dawley rats; details: daily s.c. or oral gavage for 3 or 10 days, raloxifene HCl 3 mg/kg/day, estradiol benzoate 0.03 or 0.3 mg/kg/day; for levels of ChAT, difference from the sham controls: OVX rats
Experimental: Forty female Sprague-Dawley rats (weight range of 300 to 325 g, six months old) are obtained from Harlan. The animals are either bilaterally ovariectomized (OVX) or exposed to a Sham surgical procedure, and then shipped after two weeks. Upon arrival, they are housed in metal hanging cages in groups of 3 or 4 per cage and have ad libitum access to food and water for one week. Room temperature is maintained at 22.2°±1.70° C. with a minimum relative humidity of 40%. The photoperiod in the room is 12 hours light and 12 hours dark.
The animals are dosed daily by subcutaneous injection or oral gavage with either raloxifene hydrochloride, at 3 mg/kg/day in a vehicle containing 10% cyclodextrin, estradiol benzoate at 0.03 or 0.3 mg/kg/day, or vehicle control. Animals were treated for 3 or 10 days. There are twenty animals per each dosing regimen. At the appropriate time intervals, the animals are sacrificed and their brains dissected. The particular portions of the brains are homogenized and assayed. Homogenates from the hippocampus and frontal cortex were processed and determination of ChAT activity was made by a radio-labelled assay of the bio-synthesis of acetylcholine. This procedure may be found in Schoepp et al., J. Neural Transmiss., 78:183-193, 1989, the teachings of which are incorporated by reference.

Alzheimer's disease = experiment: Amelioration of Alzheimer's disease in post-menopausal women on chronic administration; assay type: in vivo, human; details: post-menopausal women with Alzheimer's disease; 60 mg per day oral; after 2-12 months
Description: Thus, the current invention provides methods for the treatment and prophylaxis of syndromes related to the loss of memory, learning, and cognitive function, often seen in women who are estrogen deprived, especially post-menopausal women. An example of such a syndrome is senile dementia of the Alzheimer's type. Beneficial effects, such as a decrease in memory loss, associated with administration of a compound of this invention become apparent after chronic administration.

[2] = system: cognitive and memory functions; experiment: Prophylactic use: cognitive and memory function by standard tests in peri- or post-menopausal women; assay type: in vivo, human; details: 60 mg/day oral for 1-5 years
Experimental: The methods of the present invention may also be employed in a prophylactic modality. For example, a group of peri- or post-menopausal women may have their cognitive and memory function evaluated by standard tests. Following the establishment of this baseline, the women are administered raloxifene hydrochloride at 60 mg/day, via the oral route, for a period 1-5 years.

| SMILES | levels of ChAT, difference from the sham controls [1] | levels of ChAT versus the OVX controls [1] | effect on Alzheimer's disease (Alzheimer's disease) | loss of cognitive and memory functions relative to placebo [2] |
| --- | --- | --- | --- | --- |
| Cl.O=C(c1ccc(OCCN2CCCCC2)cc1)c1c(-c2ccc(O)cc2)sc2cc(O)ccc12 [raloxifene hydrochloride, [2-(4-hydroxyphenyl)-6-hydroxybenzo[b]thien-3-yl][4-[2-(1-piperidinyl)ethoxy]phenyl]methanone hydrochloride] | insignificant difference | significantly (p<0.05) increased | amelioration of their disease | decrease in loss of these functions |
| C[C@]12CC[C@@H]3c4ccc(OC(=O)c5ccccc5)cc4CC[C@H]3[C@@H]1CC[C@@H]2O [estradiol benzoate, reference compound] | insignificant difference | significantly (p<0.05) increased |  |  |
